From patent publication US20020183305A1 (Schering Corporation, priority 2001, published 2002)

Test system: Hypercholesterolemic Golden Syrian hamsters
Assay: In vivo efficacy in cholesterol-fed hypercholesterolemic hamsters (plasma cholesterol, plasma triglyceride, hepatic cholesteryl ester)
[1] = cholesterol-fed hamsters, versus Control, Table 1

Experimental: Male Golden Syrian hamsters (Charles River Labs, Wilmington, MA) weighing between 100 and 125 g were fed Wayne rodent chow until study onset. At study onset (Day 1) animals were separated into groups (n=4-6/group) and fed chow supplemented with 0.5% by weight of cholesterol (Research Diets Inc., New Brunswick, NJ). The Control and Test compounds were administered once daily for 7 days, starting on Day 1 via oral gavage in 0.2 ml corn oil. Corn oil was used as the Control.
On Day 7, blood was collected into tubes containing ethylenediaminetetraacetic acid (EDTA), and plasma was prepared by low speed centrifugation at 40C. Liver samples (0.5 g) were taken for neutral lipid analyses.
Nonfasted plasma cholesterol levels were determined by a modification of the cholesterol oxidase method, in which the reagents were available in a kit form from Wako Pure Chemicals Industries, Ltd. (Osaka, Japan). […] Assays were carried out at 37° C. for 10 min, along with cholesterol standards (Sigma Chemical Co., St. Louis, Mo.) and the resultant red quinone pigment's absorbance was determined spectrophotometrically at 505 nm.
Samples of liver (0.5 g) were lipid extracted. Lipid extracts were dried under nitrogen into HPLC sample vials, resuspended in hexane and injected onto a Zorbax Sil (4.6×25 cm) silica column. […] Lipids were detected by absorbance at 206 nm and quantitated by computer integration (System Gold, Beckman) of elution profiles. […] Cholesteryl ester content of liver-derived samples was derived from a standard curve constructed using known amounts of cholesteryl oleate.

## COc1ccc([C@@H]2[C@@H](CCCc3ccccc3)C(=O)N2c2ccc(OC)cc2)cc1 [Compound XII]
[1]
  effect on accumulation of hepatic cholesteryl esters (in words): reduced
  effect on plasma cholesterol levels (in words): reduced
Male hamsters fed chow with 0.5% cholesterol, oral gavage in corn oil once daily for 7 days, liver Day 7, Compound XII 3 mg/kg/day, niacin 100 mg/kg/day
  Hepatic Cholesteryl Ester: 12.75 ± 1.12 mg/g
Male hamsters fed chow with 0.5% cholesterol, oral gavage in corn oil once daily for 7 days, nonfasted plasma Day 7, Compound XII 3 mg/kg/day, niacin 100 mg/kg/day
  Plasma Cholesterol: 214 ± 13 mg/dL
Male hamsters fed chow with 0.5% cholesterol, oral gavage in corn oil once daily for 7 days, plasma Day 7, Compound XII 3 mg/kg/day, niacin 100 mg/kg/day
  Plasma Triglyceride: 200 ± 30 mg/dL
